These results are taken from patent US10568854B2, “Compositions and methods for treating kabuki syndrome and related disorders” (THE JOHNS HOPKINS UNIVERSITY, priority 2014, dated 2020).

Entries after “also recorded” stand apart in the source; their conditions may differ.

The test system of one data set is Klf10 expression. Briefly: Real-time PCR of Kmt2d target gene Klf10 in spleen cells. The data set is classed as in vivo, mouse. Conditions: Kmt2d^+/βGeo mice. Here is the method:
Real time PCR: Real-time PCR was performed using Kmt2d-specific probes for exons 20 and 52 (Mm_02600438 and Mm_01717664, respectively) from TaqMan® Gene Expression Assays (Life Technologies, Carlsbad, Calif.). For a comparison of transfection efficiencies for indicator constructs in transient transfection studies, real-time PCR was performed using SYBR Green Real-Time PCR Master Mix (Life Technologies, Carlsbad, Calif.) and primers IND-F-([…]; SEQ ID NO: 5) and IND-R-([…]; SEQ ID NO: 6) that are specific for the H3K4 methylation indicator. For expression analysis for KMT2D target gene KLF10, real-time PCR was performed using Klf10-specific expression assay (Mm00449812_m1) from TaqMan® Gene Expression Assays (Life Technologies, Carlsbad, Calif.).

In data set [1] the test system is H3K4me3 indicator (H3K4 trimethylation machinery activity). Briefly: H3K4me3 indicator reporter assay, FACS. To be noted: FIG. 17F. The data set is classed as cell-based. The source says: Design of the indicator constructs. A genetically encoded histone reporter allele system has been developed which can be used to monitor activity of any histone maintenance machinery component in live cells. Previously, FRET based epigenetic activity systems have been created (Lin and Ting (2004) Angew Chem Int Ed Engl. 24;43 (22):2940-3; Lin et al. (2004) J. Am. Chem. Soc. 19;126(19):5982-3; U.S. Pat. No. 7,056,683). However, FRET-based assays need a complex technological setup which is not widely available and FRET-based assays have been much more difficult to introduce into transgenic mouse models. […] The particular construct design is based on a circularly permutated green fluorescent protein (GFP) that lacks fluorescence unless the two parts of GFP are brought into close proximity by external forces (Baird et al. (1999) Proc. Natl. Acad. Sci. U.S.A. 28;96(20):11241-6). […]
An H3K4 trimethylation reporter was also created. […] The activity of the epigenetic modification system can be quantified through fluorescence.
Epigenetic reporter alleles: Epigenetic reporter alleles were synthesized (OriGene, Rockville, Md.) using published sequences for component elements (Baird et al. (1999) Proc. Nail. Acad. Sci. 96:11241-6; Souslova et al. (2007) BMC Biotechnol. 7:37). […] FACS data were analyzed using FlowJo (Tree Star Inc, Ashland, Oreg.). […]
A general note: Reporter assays use an easily measured gene product as a stand-in for the process of interest.

For `CC(C)[C@H](C(=O)Nc1ccc(C(=O)NO)cc1)c1ccccc1` [AR-42, (S)—N-hydroxy-4-(3-methyl-2-phenylbutanamido)benzamide], the “Klf10 expression in spleen cells” value in the data set with Klf10 expression is “normalization of expression of Klf10; also recorded: normalized”. For the same compound, the “H3K4me3 indicator response to increasing levels of drug” value in data set [1] is “dose dependent response”. In addition, the cell numbers entry in data set [1] (higher doses) is on record as “decreased cell numbers at higher doses”.
